Results on 8 sequences are retold here after article PMC4494349, “Epitope Prediction Assays Combined with Validation Assays Strongly Narrows down Putative Cytotoxic T Lymphocyte Epitopes” (Vaccines, 2015).

The target of one experiment is T1, H-2D^b (Mus musculus, UniProt P01899).
T1 sequence (P01899 25-362): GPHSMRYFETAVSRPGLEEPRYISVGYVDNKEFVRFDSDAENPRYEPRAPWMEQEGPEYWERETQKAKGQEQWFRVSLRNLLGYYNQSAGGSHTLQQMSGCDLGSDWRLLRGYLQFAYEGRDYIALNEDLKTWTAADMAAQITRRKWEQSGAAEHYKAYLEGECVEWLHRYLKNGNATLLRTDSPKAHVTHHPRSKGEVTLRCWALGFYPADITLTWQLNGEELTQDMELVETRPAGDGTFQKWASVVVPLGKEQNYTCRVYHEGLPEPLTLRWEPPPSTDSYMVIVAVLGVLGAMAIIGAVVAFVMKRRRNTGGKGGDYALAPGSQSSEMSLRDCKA
T1 sequence (P01887 21-119 partner): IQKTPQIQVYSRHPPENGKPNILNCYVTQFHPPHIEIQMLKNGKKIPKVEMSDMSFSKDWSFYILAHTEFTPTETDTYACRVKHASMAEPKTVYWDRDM
The experiment is described as follows: MHC class I stabilization assay on RMA-S cells, H-2D^b surface expression. Format: cell-based. Particulars: for H-2D^b binder class (weak, intermediate, strong) by stabilization of MHC class I on RMA-S cells: 10 μM (Figure 1a), in words; for MHC I Stabilization Assay, fluorescence index class, H-2D^b: RMA-S cells 26 °C 4 h then 37 °C 1 h, flow cytometry. (In general: Flow cytometry measures light scatter and fluorescence of single cells or particles in a stream.)

For another experiment, the target named is T2, H-2K^b (Mus musculus, UniProt P01901).
T2 sequence (P01901 22-369): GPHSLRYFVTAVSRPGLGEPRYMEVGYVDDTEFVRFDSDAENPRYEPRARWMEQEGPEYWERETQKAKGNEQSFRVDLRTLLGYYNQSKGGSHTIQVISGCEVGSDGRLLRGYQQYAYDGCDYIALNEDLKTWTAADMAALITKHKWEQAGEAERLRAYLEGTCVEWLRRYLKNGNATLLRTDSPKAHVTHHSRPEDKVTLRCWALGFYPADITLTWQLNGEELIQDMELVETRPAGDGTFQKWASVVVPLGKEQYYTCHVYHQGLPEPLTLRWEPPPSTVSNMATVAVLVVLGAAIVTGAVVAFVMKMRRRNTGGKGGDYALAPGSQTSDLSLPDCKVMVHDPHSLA
T2 sequence (P01887 21-119 partner): T1 sequence (P01887 21-119 partner)
The experiment is described as follows: MHC class I stabilization assay on RMA-S cells, H-2K^b surface expression. Particulars: for MHC I Stabilization Assay, fluorescence index class, H-2K^b: RMA-S cells 26 °C 4 h then 37 °C 1 h, flow cytometry.

[1] abbreviates: synthetic long peptides, peptide concentration 10 μM, FI = MFI peptide / MFI DMSO.

Protocol for H-2K^b: RMA-S cells were maintained in IMDM (Life Technologies, Bleiswijk, The Netherlands) supplemented with 10% FBS and 100 U/mL penicillin and 100 μg/mL streptomycin (Life Technologies). RMA-S cells were cultured at 26 °C for 48 h to induce expression of MHC class I molecules. Cells were then incubated with various concentrations of synthetic peptides at 26 °C for 4 h, followed by a 1-h culture at 37 °C. […] The surface expression of MHC class I molecules were analyzed by FACSCalibur cytometer (BD Biosciences, Breda, The Netherlands) and data analyzed with FlowJo software (Treestar, Ashland, OR, USA). Fluorescence index was calculated by dividing the median fluorescence intensity (MFI) value of cells incubated with SLPs by the MFI value of cells incubated with equivalent concentration of DMSO.

For the sequence LSQTKQSGENFPYLVAY [NS3_547-563], the “H-2D^b binder class (weak, intermediate, strong) by stabilization of MHC class I on RMA-S cells” value (from here on “H-2D^b binder class”) on H-2D^b (synthetic long peptides) is given as “intermediate (0.5–1.5: intermediate binders (++))”. For the same sequence, on H-2D^b (setting [1]), the “MHC I Stabilization Assay, fluorescence index class, H-2D^b” value is “++ (0.5–1.5 ++)”.

Consider AETTVRLRAYMNTPGLPV [NS3_507-524], for which the “H-2D^b binder class” value at H-2D^b (synthetic long peptides) is listed as “strong (>1.5: strong binders (+++))”. Also, the “MHC I Stabilization Assay, fluorescence index class, H-2D^b” value at H-2D^b (setting [1]) was “+++ (>1.5 +++)”.

VPAAYAAQGYKVLVL [NS3_214-228]: the “H-2K^b binder class (weak, intermediate, strong) by stabilization of MHC class I on RMA-S cells” value at H-2K^b (synthetic long peptides, 10 μM (Figure 1b), in words) was “weak (0.2–2: weak binders (+))”. On H-2K^b (setting [1]), the “MHC I Stabilization Assay, fluorescence index class, H-2K^b” value is listed as “+ (Fluorescence index of H-2K^b: 0.2–2 +)”. For the same sequence, the “H-2D^b binder class” value on H-2D^b (synthetic long peptides) is listed as “intermediate (0.5–1.5: intermediate binders (++))”. Further, the “MHC I Stabilization Assay, fluorescence index class, H-2D^b” value on H-2D^b (setting [1]) is given as “++ (0.5–1.5 ++)”.

For RLGAVQNEVTLTHPITKY [NS3_601-618], the “H-2D^b binder class” value at H-2D^b (synthetic long peptides) was “weak (0.2–0.5: weak binders (+))”. Also, the “MHC I Stabilization Assay, fluorescence index class, H-2D^b” value on H-2D^b (setting [1]) is listed as “+ (Fluorescence index of H-2D^b: 0.2–0.5 +)”.

For IQMYTNVDQDLVGWPA [NS3_72-87], the “H-2D^b binder class” value at H-2D^b (synthetic long peptides) was “weak (0.2–0.5: weak binders (+))”. In addition, the “MHC I Stabilization Assay, fluorescence index class, H-2D^b” value on H-2D^b (setting [1]) is listed as “+ (Fluorescence index of H-2D^b: 0.2–0.5 +)”.

For SIINFEKL [OVA257-264], the “Fluorescence index (FI), stabilization of H-2K^b” value at H-2K^b (short peptides at 100 μM, strong binders) is reported as more than 8. Also, on H-2K^b (short peptides, up to high peptide concentration (100 μM)), the “plateau of stabilization of H-2K^b molecules” value is “not detectable”. The “MHC I Stabilization Assay, fluorescence index class, H-2K^b” value at H-2K^b (short synthetic peptides, serially diluted (Figure 2b)) is given as “+++ (>8 +++)”. Also, the “MHC I Stabilization Assay, fluorescence index class, H-2D^b” value on H-2D^b (short synthetic peptides, serially diluted (Figure 2a)) is reported as “++ (0.5–1.5 ++)”.

For ALGINAVAYYRGLDVSVI [NS3_383-400], the “H-2D^b binder class” value at H-2D^b (synthetic long peptides) is “intermediate (0.5–1.5: intermediate binders (++))”. In addition, the “MHC I Stabilization Assay, fluorescence index class, H-2D^b” value on H-2D^b (setting [1]) is reported as “++ (0.5–1.5 ++)”.

Consider ATPPGSVTVSHPNIEEVA [NS3_323-340], for which the “H-2D^b binder class” value at H-2D^b (synthetic long peptides) is “weak (0.2–0.5: weak binders (+))”. At H-2D^b (setting [1]), the “MHC I Stabilization Assay, fluorescence index class, H-2D^b” value is on record as “+ (Fluorescence index of H-2D^b: 0.2–0.5 +)”.
